Assay in all cases: in vitro antibacterial activity, two-fold serial agar dilution in Mueller-Hinton agar (MIC)
Holding throughout (type): cell-based
A general note: In agar dilution the substance is mixed into plates at graded concentrations.

Test [1] has as its system PCresistant S. aureus. The settings on record: Staphylococcus aureus; Gp-Ib, 5 strains, penicillin-resistant S. aureus; read-out: Geometric mean of MIC. The text has this: (§1) Table 3 lists the in vitro antibacterial activity of several representative compounds of the invention. The activity has been evaluated in terms of minimum inhibitory concentrations (MIC's) by a standard two-fold serial agar dilution method in Mueller-Hinton agar. The values are in geometric means of MIC's against the strains tested in each group. The activity of the known compound ceftazidime is also given for comparison.
GpIb: PCresistant S. aureus

Test [2] concerns Ceftazidimesensitive P. aeruginosa. The settings on record: Pseudomonas aeruginosa, read-out: Geometric mean of MIC.
Excerpt: as §1
Pa (S): Ceftazidimesensitive P. aeruginosa

Test [3] relates to Ceftazidimemoderately resistant P. aeruginosa. The conditions noted are these: Pseudomonas aeruginosa, read-out: Geometric mean of MIC.
Excerpt: as §1
Pa (MR): Ceftazidimemoderately resistant P. aeruginosa

Test [4] relates to CETsensitive E. coli (3) and Kl. pneumoniae (2). The conditions noted are these: Escherichia coli, read-out: Geometric mean of MIC.
Excerpt: as §1
GnIb: CETsensitive E. coli (3) and Kl. pneumoniae (2)

The test system of test [5] is Ceftazidimehighly resistant P. aeruginosa. The settings on record: Pseudomonas aeruginosa; Pa (HR), 8 strains, ceftazidime highly resistant; read-out: Geometric mean of MIC.
Excerpt: as §1
Pa (HR): Ceftazidimehighly resistant P. aeruginosa

Test [6] deals with P. cepacia. The settings on record: Burkholderia cepacia; Pc, 2 strains; read-out: Geometric mean of MIC.
Excerpt: as §1

Test [7] concerns X. moltophilia. The settings on record: read-out: Geometric mean of MIC.
Excerpt: as §1

In test [8] the test system is M. morganii (1), Ent. cloacae (2) and Ser. marcesens (2). The conditions noted are these: Morganella morganii, read-out: Geometric mean of MIC.
Excerpt: as §1
GnII: M. morganii (1), Ent. cloacae (2) and Ser. marcesens (2)

The subject of test [9] is Cephalothin (CET)sensitive E. coli (2 strains), Kl. pneumoniae (1) and Pr. mirabilis (2). The conditions noted are these: Gn-Ia, 5 strains, read-out: Geometric mean of MIC.
Excerpt: as §1
GnIa: Cephalothin (CET)sensitive E. coli (2 strains), Kl. pneumoniae (1)

Test [10] has as its system Penicillin (PC)sensitive S. aureus. The settings on record: Staphylococcus aureus, Gp-Ia, 5 strains, read-out: Geometric mean of MIC.
Excerpt: as §1
GpIa: Penicillin (PC)sensitive S. aureus

[11] abbreviates: Pa (S), 10 strains, ceftazidime-sensitive.
[12] abbreviates: Pa (MR), 8 strains, ceftazidime moderately resistant.

Molecules are shown by their SMILES. In brackets after ≈: the same amount, converted by molar mass. Where two headings read alike, the source gives them in different places.

As a reminder, the MIC is the smallest concentration in the dilution series that meets the test's criterion for growth inhibition.

Turning to `CC(C)(O/N=C(\C(=O)NC1C(=O)N2C(C(=O)O)=C(Cn3cnc4cc(O)c(O)cc43)CS[C@H]12)c1csc(N)n1)C(=O)O` (some centres unmarked) [Ia, 7-[(Z)-2-(2-Aminothiazol-4-yl)-2-(1-carboxy-1-methylethoxyimino)acetamido]-3-(5,6-dihydroxybenzimidazol-1-yl)methyl-3-cephem-4-carboxylic acid], the MIC turned out to be 50 µg/mL (≈ 81 µM) in [1]; 0.14 µg/mL (≈ 0.227 µM) in test [2] (setting [11]); 0.47 µg/mL (≈ 0.761 µM) in [3]; 0.8 µg/mL (≈ 1.3 µM) in test [4]; 0.37 µg/mL (≈ 0.599 µM) in test [5]; 12.5 µg/mL (≈ 20.2 µM) in test [6]. The minimal inhibitory concentration (MIC) was found to be 3.1 µg/mL (≈ 5.02 µM) in test [7] (Xm, 4 strains); 1.6 µg/mL (≈ 2.59 µM) in [8] (Gn-II, 5 strains); 0.61 µg/mL (≈ 0.988 µM) in [9]; 50 µg/mL (≈ 81 µM) in [10].
Consider `CC(C)(O/N=C(\C(=O)NC1C(=O)N2C(C(=O)O)=C(Cn3ccc4ccc(O)c(=O)c-4c3)CS[C@H]12)c1csc(N)n1)C(=O)O` (some centres unmarked) [Ib, 7-[(Z)-2-(2-Aminothiazol-4-yl)-2-(1-carboxy-1-methylethoxyimino)acetamido]-3-(2,8-dihydro-7-hydroxy-8-oxo-isoquinolin-2-yl)methyl-3-cephem-4-carboxylic acid], for which the MIC was > 100 µg/mL in test [1]; 1.2 µg/mL (≈ 1.91 µM) in test [2]; 2.9 µg/mL (≈ 4.61 µM) in test [3] (setting [12]); 0.8 µg/mL (≈ 1.27 µM) in [4]; 2.6 µg/mL (≈ 4.14 µM) in test [5]; 8.9 µg/mL (≈ 14.2 µM) in [6]. Besides, the MIC turned out to be 12.5 µg/mL (≈ 19.9 µM) in test [7] (Xm, 4 strains); 2.4 µg/mL (≈ 3.82 µM) in [8] (Gn-II, 5 strains); 0.6 µg/mL (≈ 0.954 µM) in test [9]; 100 µg/mL (≈ 159 µM) in [10].
For the compound `CC(C)(O/N=C(\C(=O)NC1C(=O)N2C(C(=O)O)=C(Cn3cc4cc(O)c(=O)cc-4cn3)CS[C@H]12)c1csc(N)n1)C(=O)O` (some centres unmarked) [Ic, 7-[(Z)-2-(2-Aminothiazol-4-yl)-2-(1-carboxy-1methylethoxyimino)acetamido]-3-(2,6-dihydro-7-hydroxy-6-oxophthalazin-2-yl)methyl-3-cephem-4-carboxylic acid], the MIC in test [1] was 33 µg/mL (≈ 52.4 µM); in test [2] (setting [11]), 0.033 µg/mL (≈ 0.0524 µM); in [3] (setting [12]), 0.37 µg/mL (≈ 0.588 µM); in test [4] it was 0.033 µg/mL (≈ 0.0524 µM); in test [5] it was 0.73 µg/mL (≈ 1.16 µM); in test [6], 0.57 µg/mL (≈ 0.905 µM). In addition, the MIC in test [7] (Xm, 4 strains) is 6.3 µg/mL (≈ 10 µM); in test [8] (Gn-II, 5 strains), 0.4 µg/mL (≈ 0.635 µM); in test [9], 0.11 µg/mL (≈ 0.175 µM); in [10], 25 µg/mL (≈ 39.7 µM).
On to `C[n+]1cn(CC2=C(C(=O)[O-])N3C(=O)C(NC(=O)C(=NOC(C)(C)C(=O)O)c4csc(N)n4)C3SC2)c2cc(O)c(O)cc21` (centres unmarked) [Id, 7-[(Z)-2-(2-Aminothiazol-4-yl)-2-(1-carboxy-1-methylethoxyimino)acetamido]-3-(5,6-dihydroxy-3-methylbenzimidazol-3-io-1-yl)methyl-3-cephem-4-carboxylate], for which the MIC in test [1] amounted to 33 µg/mL (≈ 52.2 µM); in test [2] (setting [11]), 0.057 µg/mL (≈ 0.0902 µM); in test [3] (setting [12]), 0.31 µg/mL (≈ 0.491 µM); in test [4] it was 0.15 µg/mL (≈ 0.237 µM); in test [5], 0.18 µg/mL (≈ 0.285 µM); in test [6], 3.2 µg/mL (≈ 5.07 µM). For the same compound, the minimal inhibitory concentration (MIC) in test [7] (Xm, 4 strains) was 0.8 µg/mL (≈ 1.27 µM); in [8] it was 0.15 µg/mL (≈ 0.237 µM); in test [9], 0.044 µg/mL (≈ 0.0697 µM); in [10], 25 µg/mL (≈ 39.6 µM).
In the case of `CC(C)(O/N=C(\C(=O)N[C@@H]1C(=O)N2C(C(=O)[O-])=C(C[n+]3ccccc3)CS[C@H]12)c1csc(N)n1)C(=O)O` [ceftazidime, reference compound], the minimum inhibitory concentration (MIC) in test [1] stood at 12.5 µg/mL (≈ 22.9 µM); in test [2], 1.2 µg/mL (≈ 2.2 µM); in test [3] (setting [12]), 14 µg/mL (≈ 25.6 µM); in test [4], 0.3 µg/mL (≈ 0.549 µM); in [5], 65 µg/mL (≈ 119 µM); in [6], 18 µg/mL (≈ 32.9 µM). Moreover, the MIC came to 71 µg/mL (≈ 130 µM) in test [7], 0.91 µg/mL (≈ 1.66 µM) in [8], 0.17 µg/mL (≈ 0.311 µM) in test [9] and 6.3 µg/mL (≈ 11.5 µM) in test [10].
